Data as given in patent US8530512B2, “Broad spectrum gram-positive antimicrobials and anthelmintics with efficacy against drug-resistant strains and Mycobacterium species” (priority 2004, dated 2013).
≈ marks a conversion by molar mass, not a printed value. Like-named read-outs stand apart in the source and are kept apart here.

What was measured:
[1] = test system: Mycobacterium intracellulare; test: MIC assay; assay type: cell-based; conditions: Mycobacterium intracellulare; Table 6; read-out: MIC M. intracellulare
[2] = test system: C. elegans L1 larvae; test: developmental assay; assay type: in vivo; set-up: key to Developmental score, 1/1600 / Developmental score, 1/800 / Developmental score, 1/400 / Developmental score, 1/200 / Developmental score, 1/100: dead (+++); distressed (++); slightly delayed (+); the same as M9-only untreated wells (−); conditions: after four days, Ive 1 ng/μL in each well
[3] = test system: Mycobacterium avium; test: MIC assay; assay type: cell-based; conditions: Mycobacterium avium; Table 6; read-out: MIC M. avium
[4] = test system: Staphylococcus aureus ATCC 29213; test: microbe, parasite or virus in culture; assay type: cell-based; conditions: Staphylococcus aureus, ATCC29213
[5] = test system: Bacillus cereus; test: microbe, parasite or virus in culture; assay type: cell-based; conditions: Bacillus cereus; per-compound listing, Example 6; read-out: MIC B. cereus
[6] = test system: M. kansasii; test: MIC assay; assay type: cell-based; conditions: Mycobacterium kansasii; Table 6; read-out: MIC M. kansasii
[7] = test system: C. elegans; test: motility assay; assay type: in vivo; set-up: key to Movement score, 1/1600 / Movement score, 1/800 / Movement score, 1/400 / Movement score, 1/200 / Movement score, 1/100: normal (−); slow (+); very slow (++); not motile/paralyzed (+++)
[8] = test system: M. smegmatis; test: MIC assay; assay type: cell-based
[9] = test system: Mycobacterium chelonae; test: MIC assay; assay type: cell-based; conditions: Table 6; read-out: MIC M. chelonae
[10] = test system: Staphylococcus aureus MRSA MC-1; test: microbe, parasite or virus in culture; assay type: cell-based; conditions: Staphylococcus aureus, MRSA
[11] = test system: Mycobacterium fortuitum; test: MIC assay; assay type: cell-based; conditions: Mycolicibacterium fortuitum; Table 6; read-out: MIC M. fortuitum

## COc1cc(O)cc(/C=C/Oc2ccc3ccccc3c2)c1 [SK-04-23]
[1]
  MIC: 64 µg/mL (≈ 219 µM)
[2]; dilution 1/100
  Developmental score, 1/100: +++
[2]; dilution 1/200
  Developmental score, 1/200: +++
[2]; dilution 1/400
  Developmental score, 1/400: +
[2]; dilution 1/800
  Developmental score, 1/800: −
[2]; dilution 1/1600
  Developmental score, 1/1600: −
[3]
  MIC: 64 µg/mL (≈ 219 µM)
[4]; Table 6, read-out: MIC S. aureus ATCC 29213
  MIC: 8 µg/mL (≈ 27.4 µM)
[4]; per-compound listing, Example 6, read-out: MIC S. aureus
  MIC: 16 µg/mL (≈ 54.7 µM)
[5]
  MIC: 8 µg/mL (≈ 27.4 µM)
[6]
  MIC: 64 µg/mL (≈ 219 µM)
[7]; dilution 1/100 of stock (10.24 μg/μL; SK-03-92 1.024 μg/μL), Ive 1 ng/μL in all wells
  Movement score, 1/100: ++
[7]; dilution 1/200 of stock (10.24 μg/μL; SK-03-92 1.024 μg/μL), Ive 1 ng/μL in all wells
  Movement score, 1/200: ++
[7]; dilution 1/400 of stock (10.24 μg/μL; SK-03-92 1.024 μg/μL), Ive 1 ng/μL in all wells
  Movement score, 1/400: ++
[7]; dilution 1/800 of stock (10.24 μg/μL; SK-03-92 1.024 μg/μL), Ive 1 ng/μL in all wells
  Movement score, 1/800: ++
[7]; dilution 1/1600 of stock (10.24 μg/μL; SK-03-92 1.024 μg/μL), overnight 20° C., Ive 1 ng/μL in all wells
  Movement score, 1/1600: +
[7]; lowest concentrations tested, at least triplicate
  effect on worms at the lowest concentrations tested: reduced motility, paralysis, or death
[8]; Mycolicibacterium smegmatis, per-compound listing, Example 6, read-out: MIC M. smegmatis
  MIC: 128 µg/mL (≈ 438 µM)
[8]; Table 6
  MIC M. smegmatis: 128 µg/mL (≈ 438 µM)
[9]
  MIC: 128 µg/mL (≈ 438 µM)
[10]; read-out: MIC MRSA
  MIC: 8 µg/mL (≈ 27.4 µM)
[10]; read-out: MIC S. aureus MC-1
  MIC: 8 µg/mL (≈ 27.4 µM)
[11]
  MIC: 128 µg/mL (≈ 438 µM)
